# Experimental data as given in patent US9655862B2, “Ocular nanoformulation and method of use in angiogenesis-mediated disorders” (priority 2013, dated 2017).
# Entries after “also recorded” stand apart in the source; their conditions may differ.
# B1: ranibizumab (antibody, chains of the INN, looked up, V domains shown)
# VH: EVQLVESGGGLVQPGGSLRLSCAASGYDFTHYGMNWVRQAPGKGLEWVGWINTYTGEPTYAADFKRRFTFSLDTSKSTAYLQMNSLRAEDTAVYYCAKYPYYYGTSHWYFDVWGQGTLVTVSS
# VL: DIQLTQSPSSLSASVGDRVTITCSASQDISNYLNWYQQKPGKAPKVLIYFTSSLHSGVPSRFSGSGSGTDFTLTISSLQPEDFATYYCQQYSTVPWTFGQGTKVEIK
# modifications: Fab
# notes: anti-VEGF pharmacotherapy (Lucentis, Genentech)
# Experiments:
# [1] = test system: Neovascularization-mediated by VEGF+FGF2; experiment: Chick chorioallantoic membrane (CAM) model of angiogenesis; format: in vivo; conditions: VEGF and FGF2 at 1 μg/ml each, SNACH 2 ug/CAM, 3-day incubation
# Procedure: The effect of SNACH on Neovascularization-mediated by VEGF+FGF2 was examined in the CAM model. Briefly, ten-day old chick embryos were purchased from Spafas, Inc. (Preston, Conn.) and incubated at 37° C. with 55% relative humidity. A hypodermic needle was used to make a small hole in the shell at the air sac and a second hole will be made on the broadside of the egg, directly over an avascular portion of the embryonic membrane that will be identified by candling. A false air sac was created beneath the second hole by the application of negative pressure at the first hole, causing the CAM to separate from the shell. A window, approximately 1.0 cm^2, was cut in the shell over the dropped CAM with a small crafts grinding wheel (Dremel, Division of Emerson Electric Co., Racine, Wis.), allowing direct access to the underlying CAM. […] Digital images of CAM sections exposed to filters were collected, using a 3-CCD color video camera system (Toshiba America, New York, N.Y.), and analyzed with Image-Pro software (Media Cybernetics, Silver Spring, Md.). The numbers of vessel branch points contained in a circular region equal to the area of each filter disk were counted. One image were counted in each CAM preparation, and findings from 6-8 CAM preparations/group were analyzed for each treatment condition.
# [2] = test system: retinal neovascularization; experiment: Oxygen-induced retinopathy mouse model (retinopathy of prematurity), retinal neovascularization; format: in vivo
# Procedure: SNACH and SNACH Nanoparticles (1 mg/kg) in PBS at pH 7-7.5, Control: PBS at 1 mg/ml on postnatal day 12 and 15, Mode of Administration: Intraperitoneal or eye drops.
# An animal model of a mice model was used. The mice model used was the Oxygen-induced retinopathy mouse model as described by Smith L E, W. E., McLellan A, Kostyk S K, D'Amato R, Sullivan R, D'Amore P A. (1994), “Oxygen-induced retinopathy in the mouse”, Invest Ophthalmol Vis Sci 35(1): 101-111.
# The neonatal mice were exposed to hyperoxic conditions for 5 days, beginning at age p7 for the pups and continuing through p12 when they are returned to normal oxygen atmosphere (8-10 animals/group). Treatment group SNACH at 1 mg/kg administered IP or eye drops at two separate doses one at P12 and the other at P15. Day 17 animals were scarified and eyes removed for retinal Neovascularization evaluation. The removed eyes were stained with H&E stain. Additionally in upcoming study 3 additional animals per group were used for ocular tissue levels of SNACH after SNACH administration by LC/MS/MS.
# Induction of oxygen-induced retinopathy in mouse model, in accordance with embodiments of the present invention. […]
# [3] = test system: neovascularization secondary to ROP; conditions: intravitreal injection; cited from earlier work
# [4] = test system: choroidal neovascular membranes; conditions: wet AMD, Phase 3 clinical trials; cited from earlier work
molecule,measurement,setting,value
sulfated non-anticoagulant heparin [SNACH],inhibition of angiogenesis induced by VEGF and FGF2,[1],maximal inhibition of angiogenesis; also recorded: potent angiogenesis inhibitors
same,neovascular regression in ROP mice model,[2]; ROP mice,causes neovascular regression
same,inhibition of retinal neovascularization (mean total area of neovascularization),"[2]; neonatal mouse, 1.0 mg/kg, IP on day 12 and 15",60-70%
bevacizumab,regression of neovascularization secondary to ROP,[3],regression of neovascularization
B1,regression of choroidal neovascular membranes,[4],regression of choroidal neovascular membranes
